Results published in ChEMBL document CHEMBL1129162, “Analogs of the orally active growth hormone secretagogue L-162,752” (Bioorg Med Chem Lett, 1996).

tested on: not listed separately; assay: pKa was determined; assay type: physicochemical; details: not given

With NC1(C(=O)N[C@H](Cc2c[nH]c3ccccc23)C(=O)N2CCC3(CCc4ccccc43)CC2)CC1 as the compound, how does the pKa read?
Its pKa is 5.9.

With CC(C)(N)C(=O)N[C@H](Cc1c[nH]c2ccccc12)C(=O)N1CCC2(CCc3ccccc32)CC1 [L-162752] as the compound, how does the pKa read?
Its pKa is 7.9.

species on record: Rattus norvegicus; assay: In vitro for growth hormone release by using rat pituitary cell assay.; assay type: functional; details: Pituitary gland cell

For O=C(N[C@H](Cc1c[nH]c2ccccc12)C(=O)N1CCC2(CCc3ccccc32)CC1)C1CCNCC1, which EC50 is on record?
The EC50 was 100 nM.

For NC1(C(=O)N[C@H](Cc2c[nH]c3ccccc23)C(=O)N2CCC3(CCc4ccccc43)CC2)CC1, which EC50 is on record?
Its EC50 is 2100 nM.

For CC(C)(CC(=O)N[C@H](Cc1c[nH]c2ccccc12)C(=O)N1CCC2(CCc3ccccc32)CC1)NC[C@H](O)CO, which EC50 is on record?
Its EC50 is 16 nM.

Which EC50 does the source give for CC(C)(N)C(=O)N[C@H](Cc1c[nH]c2ccccc12)C(=O)N1CCC2(CCc3ccccc32)CC1 [L-162752] here?
The EC50 was 14 nM.

With C[C@H](O)CNC(C)(C)CC(=O)N[C@H](Cc1c[nH]c2ccccc12)C(=O)N1CCC2(CCc3ccccc32)CC1 as the compound, how does the EC50 read?
The EC50 was 2.6 nM.

Which EC50 does the source give for C[C@](N)(CO)C(=O)N[C@H](Cc1c[nH]c2ccccc12)C(=O)N1CCC2(CCc3ccccc32)CC1 here?
The EC50 was 600 nM.

For CC(C)(N)CC(=O)N[C@H](Cc1c[nH]c2ccccc12)C(=O)N1CCC2(CCc3ccccc32)CC1, which EC50 is on record?
The EC50 was 76 nM.

Which EC50 does the source give for O=C(N[C@H](Cc1c[nH]c2ccccc12)C(=O)N1CCC2(CCc3ccccc32)CC1)C1CCCCN1 (stereo partly specified) here?
Its EC50 is 1900 nM.

Which EC50 does the source give for O=C(NC(Cc1c[nH]c2ccccc12)C(=O)N1CCC2(CCc3ccccc32)CC1)NC1CN2CCC1CC2 (stereo unspecified) [SPIROPIPERIDINE] here?
The EC50 was 50 nM.

For C[C@H](O)CNC(C)(C)C(=O)N[C@H](Cc1c[nH]c2ccccc12)C(=O)N1CCC2(CCc3ccccc32)CC1, which EC50 is on record?
The EC50 was 700 nM.

Which EC50 does the source give for O=C(N[C@H](Cc1c[nH]c2ccccc12)C(=O)N1CCC2(CCc3ccccc32)CC1)C1CCCNC1 (stereo partly specified) here?
The EC50 was 90 nM.

For C[C@H](N)C(=O)N[C@H](Cc1c[nH]c2ccccc12)C(=O)N1CCC2(CCc3ccccc32)CC1, which EC50 is on record?
Its EC50 is 840 nM.

For C[C@@H](N)C(=O)N[C@H](Cc1c[nH]c2ccccc12)C(=O)N1CCC2(CCc3ccccc32)CC1, which EC50 is on record?
Its EC50 is 1000 nM.

For CC(C)(N)CC(=O)N[C@@H]1CCc2ccccc2N(Cc2ccc(-c3ccccc3-c3nn[nH]n3)cc2)C1=O, which EC50 is on record?
The EC50 was 60 nM.

Which EC50 does the source give for NCC(=O)N[C@H](Cc1c[nH]c2ccccc12)C(=O)N1CCC2(CCc3ccccc32)CC1 here?
The EC50 was 2000 nM.

For NC1(C(=O)N[C@H](Cc2c[nH]c3ccccc23)C(=O)N2CCC3(CCc4ccccc43)CC2)CCCC1, which EC50 is on record?
Its EC50 is 2600 nM.

With C[C@@](N)(CO)C(=O)N[C@H](Cc1c[nH]c2ccccc12)C(=O)N1CCC2(CCc3ccccc32)CC1 as the compound, how does the EC50 read?
The EC50 was 48 nM.

For CC(C)(N)C(=O)N[C@@H](Cc1c[nH]c2ccccc12)C(=O)N1CCC2(CCc3ccccc32)CC1, which EC50 is on record?
Its EC50 is 10000 nM.

species on record: Rattus norvegicus; assay: Compound was tested in vitro for growth hormone release by using rat pituitary cell assay.; assay type: functional, Pituitary gland cell; details: not given

Which Stimulation does the source give for NC1(C(=O)N[C@H](Cc2c[nH]c3ccccc23)C(=O)N2CCC3(CCc4ccccc43)CC2)CCCCC1 here?
The Stimulation was 92%.
